Assay results taken from patent publication US12134616B2, “Tricyclic pesticidal compounds” (BASF SE, priority 2018, dated 2024).

Key:
Assay type in all cases: in vivo
[1] = test system: tobacco budworm (Heliothis virescens); assay: Tobacco budworm (Heliothis virescens) microtiter diet test, egg and larval mortality; conditions: 120 h, sprayed onto insect diet, 5 days, read-out: mortality (egg and larval) in comparison with untreated controls
Protocol: (§1) If not otherwise specified, the test solutions are prepared as follows: The active compound is dissolved at the desired concentration in a mixture of 1:1 (vol:vol) distilled water:acteone. The test solution is prepared at the day of use. Test solutions are prepared in general at concentrations of 1000 ppm, 500 ppm, 300 ppm, 100 ppm and 30 ppm (wt/vol).
For evaluating control of tobacco budworm (Heliothis virescens) the test unit consisted of 96-well-microtiter plates containing an insect diet and 15-25 H. virescens eggs. The compounds were formulated using a solution containing 75% v/v water and 25% v/v DMSO. Different concentrations of formulated compounds were sprayed onto the insect diet at 10 μl, using a custom built micro atomizer, at two replications. After application, microtiter plates were incubated at about 28±1° C. and about 80±5% relative humidity for 5 days. Egg and larval mortality was then visually assessed.

[2] = test system: vetch aphid (Megoura viciae); assay: Vetch aphid (Megoura viciae) broad bean leaf disk test, contact or systemic; conditions: foliar, 120 h, sprayed onto leaf disks, 5 days, read-out: mortality (aphid) in comparison with untreated controls
Protocol: as §1
For evaluating control of vetch aphid (Megoura viciae) through contact or systemic means the test unit consisted of 24-well-microtiter plates containing broad bean leaf disks.
The compounds were formulated using a solution containing 75% v/v water and 25% v/v DMSO. Different concentrations of formulated compounds were sprayed onto the leaf disks at 2.5 μl, using a custom built micro atomizer, at two replications. After application, the leaf disks were air-dried and 5-8 adult aphids placed on the leaf disks inside the microtiter plate wells. The aphids were then allowed to suck on the treated leaf disks and incubated at about 23±1° C. and about 50±5% relative humidity for 5 days. Aphid mortality and fecundity was then visually assessed.

[3] = test system: green peach aphid (Myzus persicae); assay: Green peach aphid (Myzus persicae) artificial diet/membrane test, systemic; conditions: 72 h, pipetted into aphid diet, 3 days, read-out: mortality (aphid) in comparison with untreated controls
Protocol: as §1
For evaluating control of green peach aphid (Myzus persicae) through systemic means the test unit consisted of 96-well-microtiter plates containing liquid artificial diet under an artificial membrane. The compounds were formulated using a solution containing 75% v/v water and 25% v/v DMSO. Different concentrations of formulated compounds were pipetted into the aphid diet, using a custom built pipetter, at two replications. After application, 5-8 adult aphids were placed on the artificial membrane inside the microtiter plate wells. The aphids were then allowed to suck on the treated aphid diet and incubated at about 23±1° C. and about 50±5% relative humidity for 3 days. Aphid mortality and fecundity was then visually assessed.

[4] = test system: boll weevil (Anthonomus grandis); assay: Boll weevil (Anthonomus grandis) microtiter diet test, egg and larval mortality; conditions: 120 h, sprayed onto insect diet, 5 days, read-out: mortality (egg and larval) in comparison with untreated controls
Protocol: as §1
For evaluating control of boll weevil (Anthonomus grandis) the test unit consisted of 96-well-microtiter plates containing an insect diet and 5-10 A. grandis eggs. The compounds were formulated using a solution containing 75% v/v water and 25% v/v DMSO. Different concentrations of formulated compounds were sprayed onto the insect diet at 5 μl, using a custom built micro atomizer, at two replications. After application, microtiter plates were incubated at about 25±1° C. and about 75±5% relative humidity for 5 days. Egg and larval mortality was then visually assessed.

Measured: mortality at 2500 ppm

CCS(=O)(=O)c1cc(C(F)(F)F)cnc1-c1nc2cnc3c(OC(F)(F)F)cccc3c2n1C [Compound I.1, 2-[3-ethylsulfonyl-5-(trifluoromethyl)-2-pyridyl]-1-methyl-6-(trifluoromethoxy)imidazo[4,5-c]quinoline]
> 75%: all assays above

CCSc1cc(C(F)(F)F)cnc1-c1nc2cnc3c(OC(F)(F)F)cccc3c2n1C [Compound I.5, 2-[3-ethylsulfanyl-5-(trifluoromethyl)-2-pyridyl]-1-methyl-6-(trifluoromethoxy)imidazo[4,5-c]quinoline]
> 75%: [1] | [4]

CCS(=O)(=O)c1cccnc1-c1cn2c(ccc3c(C(F)(F)F)cc(C(F)(F)F)nc32)n1 [Compound I.54, 8-(3-ethylsulfonyl-2-pyridyl)-2,4-bis(trifluoromethyl)imidazo[1,2-a][1,8]naphthyridine]
> 75%: [1] | [2] | [4]

CCS(=O)(=O)c1cccnc1-c1nc2cc(C(F)(F)F)c3ccccc3n2n1 [Compound I.65, 2-(3-ethylsulfonyl-2-pyridyl)-5-(trifluoromethyl)-[1,2,4]triazolo[1,5-a]quinoline]
> 75%: all assays above
